Measurements from ChEMBL document CHEMBL1134241, “Spatial requirements of the antagonist binding site of the NK2 receptor” (Bioorg Med Chem Lett, 2001).

target: T1, Substance-K receptor (Homo sapiens, UniProt P21452); assay: Binding affinity for heterologously expressed human Tachykinin receptor 2 using [3H]-SR- 48968 as radioligand
T1 sequence (P21452 whole entry): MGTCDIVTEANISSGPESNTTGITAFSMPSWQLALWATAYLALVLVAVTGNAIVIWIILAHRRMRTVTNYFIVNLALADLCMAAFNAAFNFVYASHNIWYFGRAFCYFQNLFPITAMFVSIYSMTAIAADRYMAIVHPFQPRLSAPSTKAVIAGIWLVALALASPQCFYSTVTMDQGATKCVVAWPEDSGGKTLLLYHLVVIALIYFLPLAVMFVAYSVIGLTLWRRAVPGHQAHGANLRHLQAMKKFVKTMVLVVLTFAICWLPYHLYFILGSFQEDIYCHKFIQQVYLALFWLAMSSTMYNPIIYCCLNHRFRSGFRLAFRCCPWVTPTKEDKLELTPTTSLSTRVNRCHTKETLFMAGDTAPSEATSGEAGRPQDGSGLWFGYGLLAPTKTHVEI

| IC50 [nM] | SMILES |
| --- | --- |
| 25300 | [O-][S+](C[C@]1(O)CCN2CCc3c([nH]c4ccc(F)cc34)[C@H]2C1)c1ccccc1 (mixture of isomers) |
| 6 | CN(C)C(=O)NC1(c2ccccc2)CCN(CC[C@@]2(c3ccc(F)c(F)c3)CN(C(=O)c3ccccc3)CCO2)CC1 (racemic) |
| 111 | [O-][S+](c1ccccc1)C(c1ccccc1)C1(O)CCN(CCc2c[nH]c3ccc(F)cc23)CC1 (racemic) |
| 14.3 | CN(C[C@@H](CCN1CCC(NC(=O)c2ccccc2)(c2ccccc2)CC1)c1ccc(Cl)c(Cl)c1)C(=O)c1ccccc1 (racemic) |

| SMILES | IC50 [nM] |
| --- | --- |
| COC1(C[S+]([O-])c2ccccc2)CCN(CCc2c[nH]c3ccc(F)cc23)CC1 (racemic) | 2.5 |
| [O-][S+](CC1(O)CCN(CCc2c[nH]c3ccc(F)cc23)CC1)c1ccc2ccccc2c1 (racemic) | 13.4 |
| [O-][S+](CC1(O)CCN(CCc2c[nH]c3ccc(F)cc23)CC1)c1ccccc1 (racemic) [4-BENZENESULFINYLMETHYL-1-[2-(5-FLUORO-1H-INDOL-3-YL)-ETHYL]-PIPERIDIN-4-OL (STRUCTURAL MIX)] | 22 |
